Results reported in PubChem BioAssay (NCI).
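Growth conditions: 96-well plates. Treatment: test compound, 48 hours, 5 concentrations. Analysis: linear interpolation between bracketing concentrations; unreached endpoints set to highest concentration. GI50 = concentration required for 50% inhibition of growth. TGI marks complete inhibition of growth.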

Assays:
Test in all cases: NCI tumour cell line growth inhibition, 48 h
[1] = system: HOP-62 NSCLC
[2] = system: MDA-N
[3] = system: MDA-MB-435
[4] = system: OVCAR-5 ovarian
[5] = system: HCT-116 colon
[6] = system: CCRF-CEM leukemia
[7] = system: NCI/ADR-RES ovarian
[8] = system: HOP-92 NSCLC
[9] = system: A498 renal
[10] = system: MOLT-4 leukemia
[11] = system: UACC-257 melanoma

SMILES	TGI [1] [µM]	TGI [2] [µM]	TGI [3] [µM]	TGI [4] [µM]	TGI [5] [µM]	TGI [6] [µM]	TGI [7] [µM]	TGI [8] [µM]	TGI [9] [µM]	TGI [10] [µM]	TGI [11] [µM]	GI50 [3] [µM]	GI50 [6] [µM]	GI50 [8] [µM]	GI50 [10] [µM]
NC(N)=NS(=O)(=O)c1ccc(NNc2c3ccccc3nc3c(C(=O)Nc4ccc(S(=O)(=O)Nc5ncccn5)cc4)cccc23)cc1	> 100	> 100	> 100	> 100	78.1	> 100	> 100	> 100	> 100	> 100	> 100				
Cc1ccc(S(=O)(=O)c2[nH]cc(/C(=C\C3CCCCC3)[N+](=O)[O-])c2C2CCCCC2)cc1	3.71	0.968	> 100	3.71	0.468	0.991	19.9	3.99	0.837	0.94	1.2				
O=c1oc2ccccc2cc1-c1cc2ccccn2c1	> 100	> 100	> 100	> 100	> 100	> 100	> 100	> 100	> 100	> 100	> 100				
CC(C)NC(=O)OCc1c(COC(=O)NC(C)C)c(-c2cc[n+](COC(=O)C3CC3)cc2)n2c1CCC2	> 100	> 100	> 100	> 100	> 100	> 100	> 100	> 100	> 100	> 100	> 100				
O=[N+]([O-])c1ccc2[nH]c(=S)[nH]c(=S)c2c1	> 100	> 100	> 100	> 100	> 100	> 100	> 100	> 100	> 100	> 100	> 100				
Cc1ccc(C2SCC(=O)N2c2ccc(-n3c(-c4ccccc4)nc4ccccc4c3=O)cc2)cc1 (centres undefined)	53.9	80	65.3	> 100	23.1	> 100	63.1	51.6	90.3	> 100	69.8				
O=C1Nc2cccc(Cl)c2/C1=C\c1c(Cl)nc2n1CCS2	> 100	> 100	> 100	> 100	> 100	> 100	> 100	> 100	> 100	> 100	> 100				
CCn1c(-c2ccccc2)cs/c1=N\C(P(=O)(O)O)P(=O)(O)O	> 100	> 100	> 100	> 100	> 100	> 100	> 100	> 100	> 100	> 100	> 100				
C=CCc1cccc2cc(C(=O)NCc3ccccc3)c(=N)oc12	> 100	> 100	> 100	> 100	70.7	> 100	> 100	> 100	86.8	> 100	> 100				
CCOC(=O)CCC(NC(=O)Cc1ccc(Nc2nc3cc(F)c(F)cc3nc2C(=O)OCC)cc1)C(=O)OCC (centres undefined)	> 100	> 100	> 100	> 100	> 100	46.9	> 100	82.1	> 100	> 100	> 100				
CC1(C)[C@@H](Cn2ccc(=O)[nH]c2=O)CC[C@@]1(C)CO	> 100	> 100	> 100	> 100	> 100	> 100	> 100	> 100	> 100		> 100				
Cc1n(Cc2ccccc2)c2c([n+]1C)C(=O)c1ccccc1C2=O	0.775	0.32	0.33	0.503	0.512	> 100	> 100	1.49	0.653		0.14				
O=c1[nH]cnc2c1cnn2Cc1cn(CCCCO)nn1	> 100	> 100	> 100	> 100	> 100	> 100	> 100	> 100	> 100	> 100	> 100				
COC(=O)c1ccc(/C=C/c2cc(O)ccc2O)cc1	> 69.3	> 46.7	13.5	70.3	18.9	0.719	7.72	7.69	33	0.927	22.5				
CN(C)c1ccc(/C=c2/c3ccccc3n3c2c2c([n+]3C)CCCC2)cc1	1.58	1.27	0.717	5.86	0.913	5.17	43.9	0.141	0.92	1.59	2.88				
C/C=C/C(CC(O)(C(F)(F)F)C(F)(F)F)=N/NC(N)=S	> 10	> 10	> 10	> 10	> 10	> 10	> 10	> 10	> 10	> 10	> 10				
Cc1[nH]c(=O)nc2nc3ccc(Cl)cc3c(NCCNCCO)c12	20.6	25.4	25.7	26.1	18.5	28.1	42.3	24.2	34.6	> 100	25				
C[C@H]1[C@H]2[C@H]3CC[C@@H]4[C@@]5(C)CC[C@H](O)C(C)(C)[C@@H]5CC[C@@]4(C)[C@]3(C)C[C@H](O)[C@@]2(C)C[C@H]2O[C@]21C	57.7	46.5	46	58.4	36.3	> 100	51.8	56.2	38.7	> 100	39.4				
CO/N=C(\C)c1ccc(Nc2nc3ccccc3c3occc23)cc1	29.5	28.7	31.1	31.5	27.9	42.2	32.1	27.6	29.7	53.1	31.4				

SMILES	TGI [1] [µM]	TGI [2] [µM]	TGI [3] [µM]	TGI [4] [µM]	TGI [5] [µM]	TGI [6] [µM]	TGI [7] [µM]	TGI [8] [µM]	TGI [9] [µM]	TGI [10] [µM]	TGI [11] [µM]	GI50 [3] [µM]	GI50 [6] [µM]	GI50 [8] [µM]	GI50 [10] [µM]
CC1(C)C(C#N)C1C1=C(N2CCOCC2)[C@]2(C)C(OC(=O)c3ccccc3)CC[C@@H]2C1 (some centres undefined)	> 100	> 100	> 100	> 100	> 100	> 100	> 100	> 100	> 100	> 100	> 100				
C=CCCON(C(=O)OC(C)(C)C)C(C)(C)C	> 100	> 100	> 100	> 100	> 100	> 100	> 100	> 100	> 100	> 100	> 100				
COC(=O)C1=C(OC(=O)/C(=C/c2ccc(Cl)cc2)c2ccc(Cl)cc2)C(C(=O)OC)[C@@]2(O)[C@@H](C(=O)OC)[C@H](C)C[C@@H]1[C@@H]2C(=O)OC (some centres undefined)	> 100	> 100	> 100	> 100	> 100	> 100	> 100	> 86.9	> 100	98.8	> 100				
CC1(C)OC(C(=O)Nc2cc3c4ccccc4ccc3c3ccccc23)C(C(=O)N2CCCCC2)O1 (centres undefined)	> 100	> 100	> 100	> 100	> 100	> 100	> 100	> 100	> 100	> 23.9	> 100				
Nc1ccc2c(c1)C(=O)N1CCC[C@H]1C(=O)N2	> 100	> 100	> 100	> 100	> 100	20.5	> 100	> 100	> 100	> 100	> 100				
BrC1=C(Br)C2(SCCS2)[C@H]2C[C@@H]1c1ccccc12	> 100	> 26.2	> 100	> 100	> 100	> 100	> 100	> 100	> 100	> 100	> 100				
NS(=O)(=O)c1ccc(/C=C/c2ccc(O)c(O)c2)cc1	> 100	65.7	51.5	> 100	> 100	> 100	71.7	47.9	> 100	53.7	> 100	16.8	4.79	15.8	12.8
N#C[C@H](c1ccccn1)c1nc2ccccc2nc1Cl	> 100	> 100	> 100	> 100	> 100	> 100	> 100	> 100	> 100	> 100	> 100				
CC(=O)N=C1N(/C=C2\C(=O)Oc3ccccc3C2=O)C(=O)/C(=C/c2cccc(Cl)c2Cl)N1C	54.4	> 100	> 100	> 100	> 100	> 100	62	9.38	21.1	> 100	> 100				
O=c1[nH]nnc2c1sc1ncccc12	> 100	> 100	> 100	> 100	> 100	> 100	> 100	> 100	> 100	> 100	> 100				
COC[C@@H](N=CC(C)(C)C)C(C)C	> 100	> 100	> 100	> 100	> 100	> 100	> 100	> 100	> 100	> 100	> 100				
[N-]=[N+]=Nc1c([N+](=O)[O-])c(=O)n(-c2ccccc2)c2ccccc12	> 100	83.2	47	> 100	51.3	92.4	79.7	86.9	> 100	59.1	> 100				
CCOC1(OCC)C2C=CC1C(COS(=O)(=O)c1ccc(C)cc1)C2COS(=O)(=O)c1ccc(C)cc1 (centres undefined)	> 100	> 100	> 100	> 100	77.1	> 100	> 100	48	54.9	99.3	62.2				
Brc1ccc2[nH]cc(-c3csc(-c4c[nH]c5ccccc45)n3)c2c1	16.4	7.65	15.7	4.86	6.66	5.89	10.5	7.68	13.8	6.18	17.8				
O=S(=O)(O)CCCc1cccc2ccccc12	> 100	> 100	> 100	> 100	> 100	> 100	> 100	> 100	> 100	> 100	> 100				
COc1cc(C2c3cc4c(cc3OC(N3CCCCC3)C2C)OCO4)cc(OC)c1O (centres undefined)	25.9	5.6	5.92	41.3	25.7	25.1	18.5	37.3	27.1	> 91.3	41.9				
O=c1oc2ccc3ccccc3c2cc1-c1nc2ccccc2s1	> 100	> 100	> 100	> 100	> 100	> 100	> 100	> 100	> 100	> 21.6	> 100				
O=C(O)C(O)C(O)C(O)C(O)c1nc2ccccc2s1 (centres undefined)	33.5	33.2	31.8	72.9	30.1	> 100	> 100	40.1	63.7		30.9				
O=C1C=CC(=O)c2c1ccc1c3ccccc3n(CCCCCn3c4ccccc4c4ccc5c(c43)C(=O)C=CC5=O)c21	> 100	40.1	46.3	> 78.1	25.7	6.58	> 64.9	35.6	> 95.7	5.11	39.5				
